{
  "source": "ChEMBL document CHEMBL1201862",
  "about": "“PubChem BioAssay data set” (2004)",
  "key": {"[1]": {"assay": "A cytotoxicity screen of small molecule inhibitors of the PhoP region in Salmonella typhi identified in the primary screen. [Related pubchem assays: 1850, 1864, 1985 ]", "type": "functional"}, "[2]": {"assay": "viability inhibitors of stage V gametocytes – luminescence, dose response (AID 1117278);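 also: gametocytes exposed to compound for 24 hours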", "type": "functional, cell-based"}, "[3]": {"assay": "viability loss in human Jurkat cells – cell-based, luminescence, cytotoxicity control for P. falciparum gametocyte viability project, dose response (AID 1117277);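 also: potency reflects loss of cellular ATP meaning fewer viable cells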", "type": "functional"}, "[4]": {"assay": "viability of uninfected HEp-2 cells – cell-based, HTS, cytotoxicity control for RSV inhibitor project, dose response (AID 2410)", "type": "functional", "conditions": "human respiratory syncytial virus"}, "[5]": {"assay": "Trypanosoma cruzi growth suppression in host cells – NIH3T3 host cells, beta-gal luminescence, confirmation (AID 2044);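 also: luminescent beta-galactosidase reporter signal from transgenic T. cruzi replicating inside host cells; inhibitors lower the luminescence signal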", "type": "functional, cell-based"}, "[6]": {"assay": "microbe, parasite or virus in culture", "type": "functional", "conditions": "Mycobacterium tuberculosis"}, "[7]": {"assay": "NIH3T3 cell viability loss – ATP luminescence, mouse fibroblasts, counter-screen, dose response (AID 2010);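 also: cells exposed to compound for about 90 hours before reading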", "type": "functional, cell-based"}, "[8]": {"target": "Disintegrin and metalloproteinase domain-containing protein 17 (Homo sapiens, UniProt P78536)", "sequence (P78536 whole entry, the tested form may be a part)": "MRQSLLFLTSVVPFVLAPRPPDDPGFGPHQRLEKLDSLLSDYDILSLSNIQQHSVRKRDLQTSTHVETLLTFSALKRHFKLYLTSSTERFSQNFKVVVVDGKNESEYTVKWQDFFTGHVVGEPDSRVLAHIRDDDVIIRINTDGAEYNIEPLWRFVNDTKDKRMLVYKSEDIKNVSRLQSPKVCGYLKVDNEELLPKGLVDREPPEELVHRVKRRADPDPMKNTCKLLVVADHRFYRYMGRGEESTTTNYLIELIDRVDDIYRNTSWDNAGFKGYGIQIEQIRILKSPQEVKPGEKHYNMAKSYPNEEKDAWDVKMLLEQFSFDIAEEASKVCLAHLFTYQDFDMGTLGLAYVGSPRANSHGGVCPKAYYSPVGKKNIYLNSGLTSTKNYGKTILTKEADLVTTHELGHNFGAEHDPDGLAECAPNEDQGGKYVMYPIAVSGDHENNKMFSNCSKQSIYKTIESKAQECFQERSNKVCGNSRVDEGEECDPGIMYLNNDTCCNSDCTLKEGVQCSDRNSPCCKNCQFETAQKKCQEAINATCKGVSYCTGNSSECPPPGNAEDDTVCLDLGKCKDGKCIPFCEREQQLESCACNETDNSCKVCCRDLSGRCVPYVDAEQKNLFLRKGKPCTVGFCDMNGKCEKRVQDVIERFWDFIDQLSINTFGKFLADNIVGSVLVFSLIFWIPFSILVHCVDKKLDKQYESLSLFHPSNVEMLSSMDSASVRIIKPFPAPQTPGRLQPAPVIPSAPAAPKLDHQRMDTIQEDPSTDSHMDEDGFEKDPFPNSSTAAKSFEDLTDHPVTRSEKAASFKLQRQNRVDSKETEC", "assay": "exosite inhibitors of ADAM17, dose response, biochemical (AID 743260)"}, "[9]": {"assay": "inhibition of ADAM10 peptide cleavage – biochemical, FRET peptide substrate, recombinant human ADAM10, selectivity assay for ADAM17 exosite inhibitor project, dose response (AID 743259);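 also: ADAM10 enzyme cleaving a FRET peptide substrate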"}, "Ephrin type-A receptor 4": {"target": "Ephrin type-A receptor 4 (Mus musculus, UniProt Q03137)", "sequence (Q03137 whole entry)": "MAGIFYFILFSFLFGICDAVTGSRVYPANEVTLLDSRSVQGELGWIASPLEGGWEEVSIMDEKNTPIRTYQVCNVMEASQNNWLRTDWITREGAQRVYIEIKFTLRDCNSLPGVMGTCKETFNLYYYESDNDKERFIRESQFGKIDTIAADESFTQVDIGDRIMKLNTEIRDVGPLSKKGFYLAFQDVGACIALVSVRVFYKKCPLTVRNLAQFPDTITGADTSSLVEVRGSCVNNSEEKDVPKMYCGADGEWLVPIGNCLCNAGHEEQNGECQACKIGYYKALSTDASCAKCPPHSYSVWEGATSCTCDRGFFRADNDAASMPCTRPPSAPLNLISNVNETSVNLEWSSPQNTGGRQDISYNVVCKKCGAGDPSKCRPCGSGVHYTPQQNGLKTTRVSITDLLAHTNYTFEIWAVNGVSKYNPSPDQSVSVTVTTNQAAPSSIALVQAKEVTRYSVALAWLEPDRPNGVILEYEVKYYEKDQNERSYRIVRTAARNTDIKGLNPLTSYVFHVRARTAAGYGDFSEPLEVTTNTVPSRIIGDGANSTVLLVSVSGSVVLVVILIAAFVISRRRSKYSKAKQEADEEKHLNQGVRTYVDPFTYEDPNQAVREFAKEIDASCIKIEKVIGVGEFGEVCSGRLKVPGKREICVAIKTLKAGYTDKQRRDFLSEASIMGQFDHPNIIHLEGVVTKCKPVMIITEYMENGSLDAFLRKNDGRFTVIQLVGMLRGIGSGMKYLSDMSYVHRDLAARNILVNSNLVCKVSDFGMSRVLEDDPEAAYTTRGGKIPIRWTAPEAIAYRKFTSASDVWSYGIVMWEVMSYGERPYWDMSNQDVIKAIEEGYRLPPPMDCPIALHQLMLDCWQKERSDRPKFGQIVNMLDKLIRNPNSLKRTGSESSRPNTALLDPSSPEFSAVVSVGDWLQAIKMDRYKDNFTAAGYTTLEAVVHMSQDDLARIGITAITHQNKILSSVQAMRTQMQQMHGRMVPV", "assay": "EphA4 ligand-binding antagonists – biochemical, colorimetric, mouse EphA4, primary screen (AID 689)", "type": "functional"}, "Paired box protein Pax-8": {"target": "Paired box protein Pax-8 (Homo sapiens, UniProt Q06710)", "sequence (Q06710 whole entry)": "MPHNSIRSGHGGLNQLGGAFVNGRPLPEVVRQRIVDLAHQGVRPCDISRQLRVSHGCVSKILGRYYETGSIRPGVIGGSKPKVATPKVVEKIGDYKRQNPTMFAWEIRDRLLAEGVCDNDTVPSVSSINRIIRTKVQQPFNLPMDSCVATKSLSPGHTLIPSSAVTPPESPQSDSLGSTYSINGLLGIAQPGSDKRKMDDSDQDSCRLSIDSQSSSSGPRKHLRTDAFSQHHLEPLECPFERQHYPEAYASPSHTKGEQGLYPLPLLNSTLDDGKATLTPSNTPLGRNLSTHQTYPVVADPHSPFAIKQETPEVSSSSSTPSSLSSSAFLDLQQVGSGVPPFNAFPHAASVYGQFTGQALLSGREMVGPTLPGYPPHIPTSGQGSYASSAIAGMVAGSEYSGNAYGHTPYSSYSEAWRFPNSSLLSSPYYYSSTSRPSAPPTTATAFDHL", "assay": "PAX8 transcriptional activity inhibition in RMG-I – RMG-I cells, luciferase, cherry-pick, dose response (AID 687027);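 also: luciferase reporter driven by Pax8 target thyroperoxidase promoter measured by SteadyGlo luminescence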", "type": "functional, cell-based"}, "[10]": {"assay": "IGROV1 cell killing – plate reader, dry powder samples, PAX8 inhibitor project, dose response (AID 743043)", "type": "functional, cell-based", "conditions": "IGROV-1"}, "[11]": {"assay": "general cell-killing toxicity readout – plate reader, dry powder samples, cytotoxicity control for PAX8 inhibitor project, dose response (AID 743021)", "type": "functional, cell-based"}, "[12]": {"assay": "OVCAR8 cell viability loss – plate reader, dry powder samples, PAX8 project, dose response (AID 743197)", "type": "functional, cell-based", "conditions": "OVCAR-8"}},
  "note": "Active and inactive are the calls of the source.",
  "data": [
    {"smiles": "CNS(=O)(=O)c1cccc(C(=O)OCc2cc(=O)oc3c(C)c(O)ccc23)c1", "values": [
      {"measurement": "EC50", "setting": "[1]", "value": "> 50 µM (active)"}
    ]},
    {"smiles": "CCCOc1ccc(C2=CSC3=NCCN23)cc1Cl", "values": [
      {"measurement": "EC50", "setting": "[1]", "value": "> 50 µM (active)"}
    ]},
    {"smiles": "CCOC(=O)c1ccc(NC(=O)CCOc2ccc(C)cc2)cc1", "values": [
      {"measurement": "IC50", "setting": "[2]", "value": "> 109 µM (inactive)"},
      {"measurement": "IC50", "setting": "[3]", "value": "> 83.3 µM (inactive)"}
    ]},
    {"smiles": "CCOC(=O)c1sc(NC(=O)CN2C(=O)NC3(CC(C)CC(C)(C)C3)C2=O)cc1C", "note": "(stereo not drawn)", "values": [
      {"measurement": "CC50", "setting": "[4]", "value": "14.9 µM (active)"},
      {"measurement": "EC50", "setting": "[5]", "value": "2.17 µM (active)"},
      {"measurement": "CC50", "setting": "[6]", "value": "30.6 µM (active)"},
      {"measurement": "EC50", "setting": "[7]", "value": "9.25 µM (active)"},
      {"measurement": "IC50", "setting": "[8]", "value": "> 69.5 µM (inactive)"},
      {"measurement": "IC50", "setting": "[9]", "value": "10.6 µM (inactive)"}
    ]},
    {"smiles": "C=CCn1c(SCC(=O)Nc2ncc(Cc3cc(C(F)(F)F)ccc3Cl)s2)nnc1-c1ccncc1", "values": [
      {"measurement": "IC50", "setting": "Ephrin type-A receptor 4", "value": "> 100 µM (not active)"}
    ]},
    {"smiles": "CN(Cc1ccc(F)cc1)C(=O)c1cccc(OCc2ccccc2)c1", "values": [
      {"measurement": "IC50", "setting": "[8]", "value": "> 69.5 µM (inactive)"},
      {"measurement": "IC50", "setting": "[9]", "value": "21.5 µM (inactive)"}
    ]},
    {"smiles": "C[C@@H]1CN([C@H](C)CO)C(=O)c2cc(NC(=O)Nc3ccc(C(F)(F)F)cc3)ccc2O[C@@H](C)CCCCO[C@H]1CN(C)Cc1ccc2c(c1)OCO2", "values": [
      {"measurement": "AC50", "setting": "Paired box protein Pax-8", "value": "7.63 µM (active)"},
      {"measurement": "AC50", "setting": "[10]", "value": "26.7 µM (active)"},
      {"measurement": "AC50", "setting": "[11]", "value": "66.4 µM (active)"},
      {"measurement": "AC50", "setting": "[12]", "value": "31.6 µM (active)"}
    ]},
    {"smiles": "CCOC(=O)CN1C2=NCCN2c2ccccc21", "values": [
      {"measurement": "IC50", "setting": "[2]", "value": "> 109 µM (inactive)"},
      {"measurement": "IC50", "setting": "[3]", "value": "> 83.4 µM (inactive)"}
    ]},
    {"smiles": "COc1ccc(C(=O)C[n+]2cc(-c3ccc(OC)cc3)n3c2CCCC3)cc1", "values": [
      {"measurement": "EC50", "setting": "[5]", "value": "0.243 µM (active)"},
      {"measurement": "EC50", "setting": "[7]", "value": "> 60 µM (not active)"},
      {"measurement": "IC50", "setting": "[2]", "value": "> 109 µM (inactive)"},
      {"measurement": "IC50", "setting": "[3]", "value": "> 83.3 µM (inactive)"}
    ]}
  ]
}
